Calls of active or inactive are those of the source. The rule behind the calls is not given here.
Tested on: Broad 7084-01 inhibitor HTS, set 2
Experiment: inhibitors in Broad screen 7084-01, set 2 (AID 977613);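 note: host cells are infected with parasite promastigotes that become internalized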

Compound | active concentration
COc1ccc2c3c(n(C)c2c1)[C@@H](CO)N(C)CC31CN(CC2CC2)C1 | > 10 µM (inactive)
O=C(C[C@H]1CC[C@@H]2[C@H](COC[C@@H](O)CN2C(=O)C2CC2)O1)NCc1ccncc1 | > 10 µM (inactive)
O=C1CNC[C@H]2[C@@H](c3ccc(C#CC4CCCCC4)cc3)[C@@H](CO)N12 | > 10 µM (inactive)
O=C(NCCc1ccncc1)[C@H]1[C@H](CO)[C@H]2Cn3c(ccc(-c4ccccc4)c3=O)[C@H]2N1C(=O)C1CC1 | > 10 µM (inactive)
O=C(c1cccnc1)N1C[C@H]2[C@@H](c3ccccc31)[C@@H](CO)N2C(=O)CN1CCOCC1 | > 10 µM (inactive)
COc1ccc2c3c(n(C)c2c1)[C@H](CO)N(S(=O)(=O)c1ccc(C)cc1)CC31CCN(C)CC1 | > 10 µM (inactive)
COCC#Cc1ccc([C@H]2[C@@H](CO)N3C(=O)CN(C(=O)Nc4ccccc4F)C[C@@H]23)cc1 | > 10 µM (inactive)
CN1C(=O)c2cc(NC(=O)c3ccc(F)c(F)c3)ccc2OC[C@@H]2O[C@@H](CC(=O)N[C@@H]3CCN(Cc4ccccc4)C3)CC[C@H]21 | > 10 µM (inactive)
CCNC(=O)Nc1ccc2c(c1)C(=O)N(C)[C@H]1CC[C@@H](CC(=O)N[C@H](C)c3ccccc3)O[C@H]1CO2 | > 10 µM (inactive)
O=C(c1cccnc1)N1CC[C@@H]2[C@@H](CO)Nc3ccc(C4=CCCCC4)cc3[C@@H]21 | > 10 µM (inactive)
O=C1CN(S(=O)(=O)Cc2ccccc2)C[C@@H]2[C@@H](c3ccc(C#Cc4ccccc4)cc3)[C@@H](CO)N12 | > 10 µM (inactive)
Cc1cccc(S(=O)(=O)N2C[C@@H](O)COC[C@H]3O[C@@H](CC(=O)Nc4ccccc4)CC[C@@H]32)c1 | > 10 µM (inactive)
COc1ccc2c3c(n(C)c2c1)[C@@H](CO)N(C(=O)Cc1ccccc1)CC31CN(C)C1 | > 10 µM (inactive)
CN(C)CC(=O)N1[C@H](CO)[C@H](c2ccccc2-c2ccccc2F)[C@@H]1C#N | > 10 µM (inactive)
O=C(CC1CC1)N1CC(=O)N2[C@H](CO)[C@H](c3ccc(/C=C/c4ccccc4)cc3)[C@@H]2C1 | > 10 µM (inactive)
CN(C)C(=O)C[C@H]1CC[C@@H]2[C@H](COC[C@@H](O)CN2C(=O)C2CC2)O1 | > 10 µM (inactive)
CC=Cc1ccc2n(c1=O)C[C@H]1[C@H](CO)[C@@H](C(=O)Nc3ccccc3)N(CC3CCCC3)[C@@H]21 (mixture of isomers) | > 10 µM (inactive)
COc1cccc(NC(=O)N2C[C@H](O)COC[C@H]3O[C@H](CC(=O)NC4CCC4)CC[C@@H]32)c1 | > 10 µM (inactive)
O=C(CN1CCOCC1)N1CC2(C1)[C@@H](c1ccccc1)[C@@H](CO)N2Cc1ccc(F)cc1 | > 10 µM (inactive)
O=S(=O)(c1ccc(F)cc1)N1CCCCN2[C@H](C1)[C@@H](c1ccc(-c3cncnc3)cc1)[C@@H]2CO | > 10 µM (inactive)
CN(C)CC(=O)N1[C@@H](CO)[C@@H](c2ccccc2)C12CN(Cc1cc(F)ccc1F)C2 | > 10 µM (inactive)
C/C=C/c1ccc([C@H]2[C@@H](CO)N(C(C)=O)C23CN(C(=O)c2ccc(F)cc2)C3)cc1 | > 10 µM (inactive)
COc1ccc(NC(=O)N2CC(=O)N3[C@H](C2)[C@@H](c2ccc(Br)cc2)[C@@H]3CO)cc1 | > 10 µM (inactive)

Compound | active concentration
Cc1cc(C(=O)Nc2ccc3c(c2)C(=O)N(C)[C@@H]2CC[C@@H](CC(=O)NCc4ccc(-c5ccccc5)cc4)O[C@H]2CO3)no1 | > 10 µM (inactive)
CN1CCN(C(=O)C[C@@H]2CC[C@H]3[C@@H](COC[C@@H](O)CN3CC3CC3)O2)CC1 | > 10 µM (inactive)
CN(C)C(=O)C[C@@H]1CC[C@@H]2[C@H](COC[C@@H](O)CN2CC2CC2)O1 | > 10 µM (inactive)
COC(=O)[C@H]1[C@H](CO)[C@H]2Cn3c(ccc(C4=CCCCC4)c3=O)[C@H]2N1Cc1ccc2c(c1)OCO2 | > 10 µM (inactive)
O=C(Nc1cccc(F)c1)N1CCCCN2[C@H](C1)[C@@H](c1ccc(C#Cc3cccnc3)cc1)[C@@H]2CO | > 10 µM (inactive)
O=C(C[C@H]1CC[C@@H]2[C@H](COC[C@H](O)CN2Cc2cccc(F)c2)O1)NCc1cccc(F)c1 | > 10 µM (inactive)
COc1cccc(S(=O)(=O)N2CCCCN3[C@H](C2)[C@H](c2ccc(C#CCC(C)C)cc2)[C@@H]3CO)c1 | > 10 µM (inactive)
N#C[C@H]1[C@@H](c2ccccc2-c2ccccc2F)[C@H](CO)N1C(=O)C1CCC1 | > 10 µM (inactive)
C/C=C/c1ccc([C@@H]2[C@@H](CO)N3CCCCN(S(=O)(=O)c4ccc(OC)cc4)C[C@H]23)cc1 | > 10 µM (inactive)
CN1c2ccc(Br)cc2[C@@H]2[C@@H](CCN2S(=O)(=O)c2cccc(F)c2)[C@@H]1CO | > 10 µM (inactive)
O=C(c1ccccc1)N1CC(=O)N2[C@H](CO)[C@H](c3ccc(-c4ccccc4)cc3)[C@@H]2C1 | > 10 µM (inactive)
C/C=C/c1ccc([C@H]2[C@H]3CN(S(=O)(=O)c4ccc(OC)cc4)CCCCN3[C@H]2CO)cc1 | > 10 µM (inactive)
O=S(=O)(c1ccc(F)cc1)N1CCCCN2[C@H](CO)[C@H](c3ccc(-c4cncnc4)cc3)[C@H]2C1 | > 10 µM (inactive)
O=C(C[C@H]1CC[C@@H]2[C@H](COC[C@@H](O)CN2Cc2cccc(F)c2)O1)NCc1cccc(F)c1 | > 10 µM (inactive)
COc1ccccc1CN1[C@H](CO)[C@H]2c3ccccc3N(C(=O)C3CCCCC3)C[C@H]21 | > 10 µM (inactive)
O=C(C[C@@H]1CC[C@H]2[C@@H](COC[C@@H](O)CN2C(=O)Nc2cc(Cl)cc(Cl)c2)O1)NCC1CCCCC1 | > 10 µM (inactive)
COc1ccc2c3c(n(C)c2c1)[C@H](CO)N(C(=O)Nc1ccc(F)cc1)CC31CN(C(=O)Cc2ccncc2)C1 | > 10 µM (inactive)
O=C(Cc1ccncc1)N1CC(=O)N2[C@H](CO)[C@H](c3ccc(Br)cc3)[C@@H]2C1 | > 10 µM (inactive)
CC(C)NC(=O)N1CC[C@@H]2[C@H]1c1cc(Br)ccc1N(C)[C@@H]2CO | > 10 µM (inactive)
O=C(c1cnccn1)N1CC(=O)N2[C@H](CO)[C@H](c3ccc(C#CC4CC4)cc3)[C@@H]2C1 | > 10 µM (inactive)
O=C(Nc1ccccc1)N1CC(=O)N2[C@H](C1)[C@H](c1ccc(C#CC3CCCCC3)cc1)[C@@H]2CO | > 10 µM (inactive)
COc1ccccc1CN1[C@H](CO)[C@@H]2c3ccccc3N(C(=O)c3cccnc3)C[C@@H]21 | > 10 µM (inactive)
CN1c2ccc(-c3cccc(F)c3)cc2[C@@H]2[C@@H](CCN2C(=O)c2ccccc2F)[C@@H]1CO | > 10 µM (inactive)

Compound | active concentration
O=C(c1cccc(F)c1)N1CCCCN2[C@H](CO)[C@@H](c3ccc(C#CC4(O)CCCC4)cc3)[C@H]2C1 | > 10 µM (inactive)
O=C(C[C@@H]1CC[C@@H]2[C@H](COC[C@@H](O)CN2S(=O)(=O)c2cccc(Cl)c2)O1)Nc1ccc(-c2ccccc2)cc1 | > 10 µM (inactive)
COc1ccc2c3c([nH]c2c1)[C@@H](CO)N(C(=O)NC(C)C)CC31CCN(C(=O)c2cnccn2)CC1 | > 10 µM (inactive)
CCC(=O)N1CC2(C1)[C@@H](c1ccc(-c3cccc(C)c3)cc1)[C@H](CO)N2S(C)(=O)=O | > 10 µM (inactive)
O=C(C[C@H]1CC[C@H]2[C@@H](COC[C@@H](O)CN2S(=O)(=O)c2cccc(F)c2)O1)Nc1ccc(-c2ccccc2)cc1 | > 10 µM (inactive)
COCC#Cc1ccc([C@@H]2[C@H](CO)N3C(=O)CN(C(=O)Nc4ccccc4F)C[C@@H]23)cc1 | > 10 µM (inactive)
O=C(C[C@H]1CC[C@@H]2[C@H](COC[C@@H](O)CN2S(=O)(=O)c2ccc(F)cc2)O1)NCC1CC1 | > 10 µM (inactive)
CN(C)C(=O)C[C@@H]1CC[C@@H]2[C@H](COC[C@H](O)CN2CC2CCCC2)O1 | > 10 µM (inactive)
COc1ccc2c3c(n(C)c2c1)[C@H](CO)N(C(=O)Nc1ccc(F)cc1)CC31CCN(S(=O)(=O)c2cccc(C)c2)CC1 | > 10 µM (inactive)
CCC(=O)N1CC2(C1)[C@@H](c1ccc(-c3cccc(C)c3)cc1)[C@@H](CO)N2S(C)(=O)=O | > 10 µM (inactive)
COCC#Cc1ccc([C@@H]2[C@@H](CO)N3C(=O)CN(C(=O)Nc4ccccc4F)C[C@H]23)cc1 | > 10 µM (inactive)
CC=Cc1ccc2n(c1=O)C[C@@H]1[C@@H](CO)[C@H](C(=O)N3CCc4ccccc4C3)N(C(=O)C3CC3)[C@H]21 (mixture of isomers) | > 10 µM (inactive)
O=C(c1ccncc1)N1C[C@H]2[C@@H](c3ccccc31)[C@@H](CO)N2Cc1ccccc1F | > 10 µM (inactive)
CC(C)NC(=O)N1CC[C@@H]2[C@H]1c1cc(Br)ccc1N(C)[C@H]2CO | > 10 µM (inactive)
COc1ccc2c3c([nH]c2c1)[C@H](CO)N(Cc1ccncc1)CC31CCN(CC2CCOCC2)CC1 | > 10 µM (inactive)
O=C1CNC[C@H]2[C@H](c3ccc(C4=CCCC4)cc3)[C@H](CO)N12 | > 10 µM (inactive)
CCC(=O)N1CC2(C1)[C@H](c1ccc(-c3ccc(C)cc3)cc1)[C@@H](CO)N2S(=O)(=O)CC | > 10 µM (inactive)
O=C(c1cnccn1)N1CC(=O)N2[C@H](CO)[C@@H](c3ccc(C#CC4CC4)cc3)[C@@H]2C1 | > 10 µM (inactive)
CN(C)CC(=O)N1CC2(C1)[C@H](c1ccccc1)[C@@H](CO)N2S(C)(=O)=O | > 10 µM (inactive)
CCS(=O)(=O)Nc1ccc2c(c1)C(=O)N(C)[C@@H]1CC[C@H](CC(=O)NCCOC)O[C@H]1CO2 | > 10 µM (inactive)
O=C(CC1CC1)N1[C@H](CO)[C@@H]2c3ccccc3N(S(=O)(=O)c3ccccc3F)C[C@@H]21 | > 10 µM (inactive)
N#Cc1ccc(-c2ccc3c(c2)[C@H]2[C@H](CCN2C(=O)C2CCCCC2)[C@H](CO)N3)cc1 | > 10 µM (inactive)
O=C(C[C@@H]1CC[C@@H]2[C@H](COC[C@@H](O)CN2C(=O)c2ccccc2F)O1)NCc1ccccc1 | > 10 µM (inactive)
